Reference: patent US20200276181A1, “THIENOISOQUINOLINES AND THEIR DERIVATIVES FOR TARGETING TUBULIN, CH-TOG, AURORA A KINASE, TPX2, CDK5RAP2 AND/OR ASPM” (VALORBEC, SEC, priority 2017, published 2020)
Blank lines part the entries; values can stand above or below the molecule they belong to.

What was measured:
[1] = test system: A549 cells; assay: Spindle morphology, DAPI and tubulin staining; type: cell-based, human; details: 300 nM, 4 hours
Description: FIG. 1A) is a line graph showing changes in the percentage of viable HFF-1, HeLa, A549 and HCT 116 cells after treatment with a range of C75 concentrations for 3 population doubling times (N=3). […] FIG. 1C) is a line graph showing the percentage of HeLa and HFF1 cells in mitosis after treatment with various concentrations of C75 for 8 hours. The bars indicate standard deviation. FIG. 1D) is a series of images showing cells that were fixed and co-stained for tubulin (microtubules) and DAPI (DNA). […] The scale bar for the cells is 10 μm. […] FIG. 1F) is a cartoon schematic showing the key features of a metaphase cell.

[2] = target: Aurora A kinase (Homo sapiens, UniProt O14965); details: in vitro; cited from earlier work
[3] = test system: A549 cells; assay: Viability IC50, high-throughput automated analysis (Table 4); type: cell-based; details: Homo sapiens, 3 population doubling times
Description: (§1) FIG. 1A) is a line graph showing changes in the percentage of viable HFF-1, HeLa, A549 and HCT 116 cells after treatment with a range of C75 concentrations for 3 population doubling times (N=3). […] There were more rounded mitotic cells after C75 treatment in comparison to the control. FIG. 1C) is a line graph showing the percentage of HeLa and HFF1 cells in mitosis after treatment with various concentrations of C75 for 8 hours. The bars indicate standard deviation. FIG. 1D) is a series of images showing cells that were fixed and co-stained for tubulin (microtubules) and DAPI (DNA). Treatment of HeLa cells with 300 nM C75 caused the mitotic spindles to be disorganized, while they were not affected in HFF1 cells. […] The scale bar for the cells is 10 μm. […] FIG. 1F) is a cartoon schematic showing the key features of a metaphase cell.
(§2) The images in FIG. 1B) show fields of view of HeLa cells treated with (dimethyl sulfoxide) DMSO or 500 nM of C75. […] Higher concentrations of C75 caused spindle phenotypes in HFF1 cells, but they were quite different in comparison to HeLa cells (FIG. 1D).

[4] = test system: HCT 116 cells; assay: as above; type: cell-based; details: Homo sapiens, 3 population doubling times
Description: as §1, §2

[5] = test system: HFF-1 cells; assay: as above; type: cell-based; details: Homo sapiens, 3 population doubling times
Description: as §1, §2

[6] = test system: HeLa cells; assay: as above; type: cell-based; details: Homo sapiens, 3 population doubling times
Description: as §1, §2

[7] = test system: A549 cells; assay: IC50 of derivatives (Table 5); type: cell-based, human; details: Table 5, cell line only named in b213 (A549)
[8] = test system: HeLa (cervical adenocarcinoma) cells; assay: Cell viability IC50 (Table 3); type: cell-based, human
Description: (§3) To date, 30 variants with different structural modifications have been made. […] In particular, it is shown that C75 causes death in multiple cancer cells with IC50 values in the 100-400 nM range, including breast cancers (MCF7, BT549), lung cancer (A549), colorectal cancer (HCT116) in addition to HeLa cells (cervical cancer).

[9] = test system: MCF-7 (mammary gland carcinoma) cells; assay: Cell viability IC50 (Table 3); type: cell-based, human; details: MCF-7 cells
Description: as §3

[10] = test system: BT549 (breast ductal carcinoma) cells; assay: Cell viability IC50 (Table 3); type: cell-based, human
Description: as §3

[11] = test system: HFF1 (fibroblast) non-cancer cells; assay: Cell viability IC50 (Table 3); type: cell-based; details: HFF-1 non-cancer cells
Description: as §3

[12] = test system: MCF7, BT549, A549, HCT116, HeLa cells; assay: Viability in cancer vs non-cancer cell lines, summary of Table 3; type: cell-based, human
Description: as §3

[13] = test system: HeLa cells with lower levels of endogenous ch-TOG (ch-TOG RNAi); assay: Spindle phenotypes with ch-TOG RNAi; type: cell-based, human; details: 200 nM C75 or 20 nM colchicine
Text: FIG. 7B) is a bar graph showing the proportion of phenotypes of the HeLa cells observed in the different conditions listed in 7A) (bipolar spindles in light grey; bipolar spindles with misaligned chromosomes in dark grey; multipolar/fragmented spindles in hatched lines; monopolar spindles in black).

[14] = test system: HeLa cells with lower levels of endogenous MCAK (MCAK RNAi); assay: Spindle phenotypes with MCAK RNAi; type: cell-based, human; details: 300 nM C75 or 30 nM colchicine
Text: FIG. 8B) is a bar graph showing the proportion of spindle phenotypes in HeLa cells treated as in 8A).
Since this is unique to C75, and ch-TOG RNAi was previously shown to be suppressed (partially) by MCAK RNAi, supporting C75's role in targeting ch-TOG or a component of the pathway.

[15] = test system: HeLa cells in metaphase; assay: Short treatment and washout, spindle recovery; type: cell-based, human; details: 5 minutes treatment, washout, imaged after 40 minutes
Text: For each condition, 20,000 cells were counted per replicate (N=3). Line graphs (right) were made to better illustrate the relative changes in the cell cycle phases for the different treatments. Bars show standard deviation. The asterisks indicate the first statistically significant change in the G0/G1 and G2/M populations determined by a two-way ANOVA with a post-hoc Tukey's multiple comparisons test using 95% confidence intervals. FIG. 2B) is a line graph showing the percentage of HCT116 (p53−/−) cells, A549 cells, HeLa cells and H1299 cells in mitosis after treatment with various concentrations of C75 for one population doubling time. All of the cell lines show an increase in the proportion of mitotic cells after treatment with 200 nM C75. The bars indicate standard deviation. […]
C75 was also tested for efficacy in different cancer cell lines. […] To further assess the role of C75 in disrupting spindles, HeLa cells were treated with 300 nM C75 for 4 hours and the spindle phenotypes were analyzed in more detail (FIG. 2E). […] To assess the affect of C75 on centrosomes, HeLa cells were treated with C75 or nocodazole (a drug that causes microtubule depolymerization as a control) for a short period of time (5 minutes), then the drugs were removed and the cells were analyzed for spindle phenotypes (schematic in FIG. 2G). […]

[16] = target: Purified free alpha and beta tubulin dimers (Homo sapiens, UniProt P07437+Q71U36); details: comparison drugs; cited from earlier work

Chain of Aurora A kinase (O14965 whole entry): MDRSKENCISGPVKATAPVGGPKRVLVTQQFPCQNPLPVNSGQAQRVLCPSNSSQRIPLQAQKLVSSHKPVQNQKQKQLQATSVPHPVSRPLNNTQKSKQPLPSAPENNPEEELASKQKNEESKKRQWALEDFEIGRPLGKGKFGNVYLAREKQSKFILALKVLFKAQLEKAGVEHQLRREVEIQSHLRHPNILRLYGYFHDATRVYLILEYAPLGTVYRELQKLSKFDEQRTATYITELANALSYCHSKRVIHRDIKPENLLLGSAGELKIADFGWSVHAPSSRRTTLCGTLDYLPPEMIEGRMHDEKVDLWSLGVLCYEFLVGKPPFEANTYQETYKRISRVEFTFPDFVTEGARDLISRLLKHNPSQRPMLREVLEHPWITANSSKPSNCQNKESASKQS

SMILES: COc1cc(Nc2ncc3c(n2)-c2ccc(Cl)cc2C(c2c(F)cccc2OC)=NC3)ccc1C(=O)O [Alisertib, reference compound]
- spindle phenotype [1]: mitotic arrest and spindle phenotypes similar to what was observed for C75
- affinity for Aurora A kinase [2]: ~1 nM

- IC50 [3]: > 1000 nM
- IC50 [4]: > 1000 nM
- IC50 [6]: > 1000 nM
- IC50 ([7]; Homo sapiens): > 1000 nM
SMILES: O=S(=O)(c1cccs1)N1Cc2ccccc2-c2sccc21 [Compound C87]
- IC50 [5]: > 1000 nM

- IC50 [8]: 177 nM
- IC50 [9]: 149 nM
- IC50 [7]: 781 nM
SMILES: COc1ccc(S(=O)(=O)N2Cc3ccccc3-c3sccc32)cc1 [Compound C90]

- IC50 [10]: 178 nM
- IC50 [8]: 70 nM
- IC50 [9]: 86 nM
- IC50 [7]: 433 nM
SMILES: COc1ccc(S(=O)(=O)N2Cc3ccccc3-c3sc(I)cc32)cc1 [Compound C207]
- IC50 [11]: 150 nM
- efficacy (effect on viability) in cancer cells vs. non-cancer cells [12]: higher efficacy

SMILES: COc1cc2c(c(OC)c1OC)-c1ccc(OC)c(=O)cc1[C@@H](NC(C)=O)CC2 [colchicine, reference compound]
- interaction with ch-TOG RNAi, fragmented spindle phenotype [13]: synergistic
- suppression of fragmented spindle phenotype by MCAK RNAi [14]: not

SMILES: COC(=O)Nc1nc2ccc(C(=O)c3cccs3)cc2[nH]1 [nocodazole, reference compound]
- spindles reformed after drug removal [15]: bipolar spindles reformed

SMILES: CC[C@]1(O)C[C@@H]2CN(CCc3c([nH]c4ccccc34)[C@@](C(=O)OC)(c3cc4c(cc3OC)N(C)[C@H]3[C@@](O)(C(=O)OC)[C@H](OC(C)=O)[C@]5(CC)C=CCN6CC[C@]43[C@@H]65)C2)C1 [vinblastine]
- concentration causing a similar decrease of polymerization [16]: ~5 µM
